The values that follow come from patent US8263606B2 (Xenon Pharmaceuticals Inc., priority 2008, dated 2012).

Data set [1] has as its target CYP3A4 (Homo sapiens, UniProt P08684). Nature of the data set: Cytochrome P450 (CYP450) Inhibition Assay, CYP3A4 (Vivid fluorescence, BOMCC substrate). The following applies: human, P450 Baculosomes (recombinant CYP3A4), probe BOMCC (Vivid substrate).
Data set [2] deals with inactivated state of the channel of interest (sodium channel). Nature of the data set: Electrophysiological assay (whole cell voltage clamp, in vitro). The class given is cell-based. The note with it: affinity for the inactivated state of the channel of interest. Here is the method:
Cells expressing the channel of interest are cultured in DMEM growth media (Gibco) with 0.5 mg/mL G418, +/−1% PSG, and 10% heat-inactivated fetal bovine serum at 37° C. and 5% CO2. For electrophysiological recordings, cells are plated on 10 mm dishes.
Whole cell recordings are examined by established methods of whole cell voltage clamp (Bean et al., op. cit.) using an Axopatch 200B amplifier and Clampex software (Axon Instruments, Union City, Calif.). All experiments are performed at ambient temperature. Electrodes are fire-polished to resistances of 2-4 Mohms Voltage errors and capacitance artifacts are minimized by series resistance compensation and capacitance compensation, respectively. Data are acquired at 40 kHz and filtered at 5 kHz. The external (bath) solution consists of: NaCl (140 mM), KCl (5 mM), CaCl2 (2 mM), MgCl2 (1 mM), HEPES (10 mM) at pH 7.4. The internal (pipette) solution consists of (in mM): NaCl (5), CaCl2 (0.1), MgCl2 (2), CsCl (10), CsF (120), HEPES (10), EGTA (10), at pH 7.2.
To estimate the steady-state affinity of compounds for the resting and inactivated state of the channel (Kr and Ki, respectively), 12.5 ms test pulses to depolarizing voltages from −60 to +90 mV from a holding potential of −120 m V is used to construct current-voltage relationships (I-V curves). A voltage near the peak of the IV-curve (−30 to 0 m V) is used as the test pulse throughout the remainder of the experiment. Steady-state inactivation (availability) curves are then constructed by measuring the current activated during a 8.75 ms test pulse following 1 second conditioning pulses to potentials ranging from −120 to −10 m V.
The steady-state voltage-dependence of binding of a compound to a sodium channel is determined by measuring the blockage of the ionic current at two holding potentials. Binding to rested-state channels is determined by using a holding potential of −120 mV, so that maximal availability is achieved. Binding to inactivated-state channels is evaluated at a holding potential such that only 10% of the channels are available to open. The membrane potential is held at this voltage for at least 10 seconds so that drug binding can equilibrate.
The apparent dissociation constant at each voltage is calculated with the equation:
[formula] where Kd is the dissociation constant (either Kr or Ki), and [Drug] is the concentration of the test compound.
The Example numbers provided in Table 3 correspond to the Examples herein: […]

In data set [3] the test system is sodium channel. Nature of the data set: Guanidine influx assay (14C-guanidine radiotracer flux, in vitro). The following applies: guanidine influx assay using a known cell line that expresses a sodium channel. The class given is cell-based, human or rat. The essentials:
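Cells (human/rat Nav, endogenous or recombinant), ~100,000/well, 20-24 h 37 °C/5% CO2. Wash LNHBSS (150 mM choline Cl, HEPES, glucose). Add cpd + aconitine/14C-guanidine mix, RT. Wash, dry, scintillation count. IC50: 4-PL fit; selectivity as IC50 ratio vs reference channel, e.g. Nav1.5.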

Each structure is given as a SMILES string. A value given as a limit tells only on which side of the number the result lay.

Sequence of CYP3A4 (P08684 whole entry): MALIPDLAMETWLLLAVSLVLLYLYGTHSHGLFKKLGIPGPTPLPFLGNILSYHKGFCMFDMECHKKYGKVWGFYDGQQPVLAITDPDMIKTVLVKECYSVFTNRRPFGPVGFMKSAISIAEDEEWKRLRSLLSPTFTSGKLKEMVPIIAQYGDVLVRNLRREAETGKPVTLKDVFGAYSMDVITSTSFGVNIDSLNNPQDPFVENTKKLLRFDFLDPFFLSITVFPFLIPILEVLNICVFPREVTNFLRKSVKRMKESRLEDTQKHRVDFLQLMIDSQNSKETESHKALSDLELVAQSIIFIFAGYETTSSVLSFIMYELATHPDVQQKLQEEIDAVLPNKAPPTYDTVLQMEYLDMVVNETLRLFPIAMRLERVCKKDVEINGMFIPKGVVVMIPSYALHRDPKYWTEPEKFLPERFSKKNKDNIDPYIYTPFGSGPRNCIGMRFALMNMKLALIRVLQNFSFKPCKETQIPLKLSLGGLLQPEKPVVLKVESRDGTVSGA

In turn, `O=C1N(Cc2cccnc2)c2ccccc2C12COc1cc3c(cc12)OCCO3` (stereo not shown) [Example 1.2, 1-(pyridin-3-ylmethyl)-2,3-dihydrospiro[furo[2,3-g][1,4]benzodioxine-8,3′-indol]-2′(1′H)-one] had a melting point of 142 to 143 °C. Also, in data set [1], the inhibition at 10 µM is less than 50%. The compound further yielded a Ki in data set [2] of more than 0.3 µM. In addition, in data set [3] (activity level class), the concentration for half-maximal inhibition (IC50) lay in the range of 0.001 to 0.1 µM.

Turning to `O=C1N(Cc2ccc(O)cn2)c2ccccc2[C@]12COc1cc3c(cc12)OCCO3` [Example 1.13, (8S)-1′-[(5-hydroxypyridin-2-yl)methyl]-2,3-dihydrospiro[furo[2,3-g][1,4]benzodioxine-8,3′-indol]-2′(1′H)-one], the melting point was 256 to 258 °C. In data set [1], the inhibition at 10 µM is less than 50%. Also, the Ki in data set [2] was less than 0.3 µM. The concentration for half-maximal inhibition (IC50) in data set [3] (activity level class) lay in the range of 0.1 to 1 µM.

In the case of `O=C1N(Cc2ccc(C(F)(F)F)o2)c2cc3c(cc2C12COc1cc4c(cc12)OCCO4)OCCO3` (stereo not shown) [Example 2.27, 6-((5-(trifluoromethyl)furan-2-yl)methyl)-2,3,3′,7′-tetrahydro-2′H-spiro[[1,4]dioxino[2,3-f]indole-8,8′-benzofuro[5,6-b][1,4]dioxin]-7(6H)-one], the melting point lay within 176 to 178 °C. In addition, in data set [1], the inhibition at 10 µM is more than 50%. The compound also gave a Ki in data set [2] of less than 0.3 µM. In addition, the IC50 in data set [3] (activity level class) was in the range of 0.1 to 1 µM.

`O=C1N(Cc2ccc(C(F)(F)F)o2)c2ccccc2C12COc1cc3c(cc12)OC(F)(F)O3` (stereo not shown) [Example 2.34, 2,2-difluoro-1′-{[5-(trifluoromethyl)furan-2-yl]methyl}spiro[furo[2,3-f][1,3]benzodioxole-7,3′-indol]-2′(1′H)-one] displayed a melting point of 59 to 60 °C. Also, the inhibition at 10 µM in data set [1] is more than 50%. This compound showed a Ki in data set [2] of more than 0.3 µM. Also, in data set [3] (activity level class), the concentration for half-maximal inhibition (IC50) is 0.1 to 1 µM.

In the case of `COCCOCCN1C(=O)C2(COc3cc4c(cc32)OCCO4)c2cc3c(cc21)OCCO3` (stereo not shown) [Example 2.65, 6-[2-(2-methoxyethoxy)ethyl]-2,2′,3,3′-tetrahydrospiro[1,4-dioxino[2,3-f]indole-8,8′-furo[2,3-g][1,4]benzodioxin]-7(6H)-one], the melting point lay within 146 to 148 °C. Also, in data set [1], the inhibition at 10 µM was less than 50%. The same compound registered a Ki in data set [2] of more than 0.3 µM. Also, the IC50 in data set [3] (activity level class) was in the range of 1 to 10 µM.

Regarding `COc1cc2c(cc1C)C1(CO2)C(=O)Nc2ccccc21` (stereo not shown) [Example 3, 6-methoxy-5-methylspiro[1-benzofuran-3,3′-indol]-2′(1′H)-one], the melting point is more than 250 °C. The inhibition at 10 µM in data set [1] was more than 50%. Moreover, the Ki in data set [2] is more than 0.3 µM. Further, the 50% inhibitory concentration (IC50) in data set [3] (activity level class) was in the range of 1 to 10 µM.

`COc1cc2c(cc1C#N)C1(CO2)C(=O)Nc2ccccc21` (stereo not shown) [Example 3.29, 6-methoxy-2′-oxo-1′,2′-dihydrospiro[1-benzofuran-3,3′-indole]-5-carbonitrile] registered a melting point of 185 to 186 °C. Also, the inhibition at 10 µM in data set [1] is less than 50%. Besides, the Ki in data set [2] was more than 0.3 µM. Also, in data set [3] (activity level class), the IC50 was 1 to 10 µM.

For the compound `O=C1Nc2cccc(-c3cnc4ccccc4c3)c2C12COc1cc3c(cc12)OCCO3` (stereo not shown) [Example 3.34, 4′-quinolin-3-yl-2,3-dihydrospiro[furo[2,3-g][1,4]benzodioxine-8,3′-indol]-2′(1′H)-one], the melting point is 221 to 224 °C. Moreover, the inhibition at 10 µM in data set [1] was more than 50%. Besides, the Ki in data set [2] is more than 0.3 µM. Moreover, the IC50 in data set [3] (activity level class) was in the range of 0.1 to 1 µM.

Compound `O=C1Nc2cccc(-c3ccc(Oc4ccccc4)cc3)c2C12COc1cc3c(cc12)OCCO3` (stereo not shown) [Example 3.35, 4′-(4-phenoxyphenyl)-2,3-dihydrospiro[furo[2,3-g][1,4]benzodioxine-8,3′-indol]-2′(1′H)-one] showed a melting point of 243 to 246 °C. The inhibition at 10 µM in data set [1] was more than 50%. Also, the Ki in data set [2] is more than 0.3 µM. The IC50 in data set [3] (activity level class) was in the range of 0.1 to 1 µM.

As for `O=C1Nc2ccccc2C12COc1ccc3nonc3c12` (stereo not shown) [Example 3.41, spiro[furo[3,2-e][2,1,3]benzoxadiazole-8,3′-indol]-2′(1′H)-one], the melting point is more than 220 °C. Moreover, in data set [1], the inhibition at 10 µM is less than 50%. This compound also displayed a Ki in data set [2] of more than 0.3 µM. Besides, in data set [3] (activity level class), the IC50 was 1 to 10 µM.

On to `N#Cc1cccc(CN2C(=O)C3(COc4cc5c(cc43)CCO5)c3ccccc32)c1` (stereo not shown) [Example 4.22, 3-[(2′-oxo-5,6-dihydrospiro[benzo[1,2-b:5,4-b′]difuran-3,3′-indol]-1′(2′H)-yl)methyl]benzonitrile], for which the melting point lay in the range of 187 to 193 °C. For the same compound, in data set [1], the inhibition at 10 µM is more than 50%. In data set [2], this compound registered a Ki of more than 0.3 µM. The half-maximal inhibitory concentration (IC50) in data set [3] (activity level class) was in the range of 0.001 to 0.1 µM.

`O=C1N(Cc2ccc3nonc3c2)c2ccccc2C12COc1cc3c(cc12)CCO3` (stereo not shown) [Example 4.27, 1′-(2,1,3-benzoxadiazol-5-ylmethyl)-5,6-dihydrospiro[benzo[1,2-b:5,4-b′]difuran-3,3′-indol]-2′(1′H)-one] gave a melting point of 169 to 171 °C. In addition, the inhibition at 10 µM in data set [1] is more than 50%. Also, the Ki in data set [2] is more than 0.3 µM. In addition, the half-maximal inhibitory concentration (IC50) in data set [3] (activity level class) was 0.001 to 0.1 µM.

Take `O=C1N(Cc2ccc3nsnc3c2)c2ccccc2C12COc1cc3c(cc12)CCO3` (stereo not shown) [Example 4.28, 1′-(2,1,3-benzothiadiazol-5-ylmethyl)-5,6-dihydrospiro[benzo[1,2-b:5,4-b′]difuran-3,3′-indol]-2′(1′H)-one]: the melting point fell in the range of 162 to 164 °C. Further, in data set [1], the inhibition at 10 µM was more than 50%. In data set [2], this compound yielded a Ki of less than 0.3 µM. Moreover, the IC50 in data set [3] (activity level class) was 0.001 to 0.1 µM.

As for `O=C1N(CC2CN(Cc3ccccc3)CCO2)c2ccccc2C12COc1cc3c(cc12)CCO3` (stereo not shown) [Example 4.29, 1′-[(4-benzylmorpholin-2-yl)methyl]-5,6-dihydrospiro[benzo[1,2-b:5,4-b′]difuran-3,3′-indol]-2′(1′H)-one], the melting point was 65 to 70 °C. In data set [1], the inhibition at 10 µM was more than 50%. For the same compound, the Ki in data set [2] was more than 0.3 µM. Besides, the half-maximal inhibitory concentration (IC50) in data set [3] (activity level class) was 1 to 10 µM.

Take `CC(C)CCN1C(=O)C2(COc3cc4c(cc32)OCCO4)c2ccccc21` (stereo not shown) [Example 4.36, 1′-(3-methylbutyl)-2,3-dihydrospiro[furo[2,3-g][1,4]benzodioxine-8,3′-indol]-2′(1′H)-one]: the melting point is 134 to 137 °C. Further, the inhibition at 10 µM in data set [1] was less than 50%. The compound also registered a Ki in data set [2] of less than 0.3 µM. In addition, in data set [3] (activity level class), the IC50 was in the range of 0.001 to 0.1 µM.

Consider `O=C1N(CC2CCCCO2)c2ccccc2C12COc1cc3c(cc12)OCCO3` (stereo not shown) [Example 4.38, 1′-(tetrahydro-2H-pyran-2-ylmethyl)-2,3-dihydrospiro[furo[2,3-g][1,4]benzodioxine-8,3′-indol]-2′(1′H)-one], for which the melting point is 158 to 166 °C. For the same compound, in data set [1], the inhibition at 10 µM was less than 50%. Moreover, in data set [2], the Ki was less than 0.3 µM. The IC50 in data set [3] (activity level class) is 0.001 to 0.1 µM.

Take `O=C1N(C[C@H]2COCCO2)c2ccccc2[C@]12COc1cc3c(cc12)OCCO3` [Example 8.7, (8S)-1′-[(2S)-1,4-dioxan-2-ylmethyl]-2,3-dihydrospiro[furo[2,3-g][1,4]benzodioxine-8,3′-indol]-2′(1′H)-one]: the melting point lay in the range of 198 to 200 °C. This compound displayed a Ki in data set [2] of more than 0.3 µM. The half-inhibitory concentration (IC50) in data set [3] (activity level class) lay within 0.001 to 0.1 µM.

On to `COc1ccc(-c2cccc3c2C2(COc4cc5c(cc42)CCO5)C(=O)N3C[C@H]2CCCO2)cc1` (stereo partly drawn) [Example 16.9, 4′-(4-methoxyphenyl)-1′-[(2R)-tetrahydrofuran-2-ylmethyl]-5,6-dihydrospiro[benzo[1,2-b:5,4-b′]difuran-3,3′-indol]-2′(1′H)-one], for which the inhibition at 10 µM in data set [1] is more than 50%. The same compound showed a Ki in data set [2] of less than 0.3 µM. Besides, in data set [3], the half-inhibitory concentration (IC50) was in the range of 0.001 to 0.1 µM.

Take `O=C1N(C[C@H]2CCCO2)c2cccc(-c3cncnc3)c2C12COc1cc3c(cc12)CCO3` (stereo partly drawn) [Example 16.10, 4′-pyrimidin-5-yl-1′-[(2R)-tetrahydrofuran-2-ylmethyl]-5,6-dihydrospiro[benzo[1,2-b:5,4-b′]difuran-3,3′-indol]-2′(1′H)-one]: the inhibition at 10 µM in data set [1] was more than 50%. Also, the Ki in data set [2] was more than 0.3 µM. In addition, the half-maximal inhibitory concentration (IC50) in data set [3] lay within 1 to 10 µM.

The term inhibition denotes the change of the read-out against control, counted positive when it falls. By IC50 is commonly meant the concentration at which inhibition is half-maximal. The melting point is the temperature, or range, at which the solid turns liquid.
